The values that follow come from patent US8623862B2, “Derivatives of N-[(1H-pyrazol-1-yl)aryl]-1H-indole or 1H-indazole-3-carboxamide, preparation thereof and applications thereof in therapeutics” (Sanofi, priority 2011, dated 2014).

The subject of the first assay is platelet aggregation. Nature of the assay: Inhibition of platelet aggregation in vitro (rat blood).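 Further: aggregation induced by ADP added as 4 µL of a 250 µM solution.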 It counts as cell-based. Conditions: 0.1 h; rat platelet-rich plasma, ADP-induced aggregation, area under the curve of absorbance for 6 minutes; read-out: Inhibition of platelet aggregation in vitro (rat blood). The protocol:
The measurements of platelet aggregation are performed at 37° C. in glass tubes (Chrono-Log—Kordia aggregometer).
Inhibition of Platelet Aggregation In Vitro (Rat Blood)
The blood is taken from male rats of the Sprague-Dawley strain, weighing 250-300 g.
The platelet-rich plasma (PRP) is obtained by centrifugation of the blood at 300 g for 5 minutes, and the measurements of platelet aggregation are performed as described above.
The results are calculated using the area under the curve of absorbance measured for 6 minutes, and expressed as percentage inhibition.
Consider `CCCC(=O)c1cnn(-c2ccc(NC(=O)c3cn(CC(=O)O)c4cc(C)c(Cl)cc34)cc2)c1C` [Compound 4, Sodium (3-{[4-(4-butyryl-5-methyl-1H-pyrazol-1-yl)phenyl]carbamoyl}-5-chloro-6-methyl-1H-indol-1-yl)acetate], for which the IC50 was found to be 3300 nM.

Staying with this assay, now noted: rat blood, in vitro; read-out: Inhibition of platelet aggregation in vitro (rat blood).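 Further: aggregation induced by ADP added as 4 µL of a 250 µM solution.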
Consider `CCCC(=O)c1cnn(-c2ccc(NC(=O)c3cn(CC(=O)N4CCN(CC(=O)N(C)C)CC4)c4ccc(Cl)cc34)cc2)c1C` [Compound 154], for which the IC50 was 150 nM.

As for `CCCC(=O)c1cnn(-c2ccc(NC(=O)c3cn(CC(=O)N4CCN(C5CCC5)CC4)c4ccc(Cl)cc34)cc2)c1C` [Compound 201], the IC50 turned out to be 650 nM.

`CCCC(=O)c1cnn(-c2ccc(NC(=O)c3cn(CC(=O)N4CCC(F)(F)C4)c4ccc(Cl)cc34)cc2)c1C` [Compound 189]: the IC50 stood at 410 nM.

Take `CCCC(=O)c1cnn(-c2ccc(NC(=O)c3cn(CC(=O)N4CCN(CC(=O)N5CCCC5)CC4)c4ccc(Cl)cc34)cc2)c1C` [Compound 198]: the IC50 came to 410 nM.

Regarding `CCCC(=O)c1cnn(-c2ccc(NC(=O)c3cn(CC(=O)N(C)C)c4cc(C)c(C)cc34)cc2)c1C` [Compound 106], the IC50 worked out at 2210 nM.

For `CCCC(=O)c1cnn(-c2ccc(NC(=O)c3cn(CC(=O)N4CCN(CCS(C)(=O)=O)CC4)c4ccc(Cl)cc34)cc2)c1C` [Compound 148], the IC50 is 150 nM.

Staying with this assay, now noted: rat platelet-rich plasma, ADP-induced aggregation, area under the curve of absorbance for 6 minutes; read-out: Inhibition of platelet aggregation in vitro (rat blood).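 Further: aggregation induced by ADP added as 4 µL of a 250 µM solution.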
For `CCCC(=O)c1cnn(-c2ccc(NC(=O)c3nn(CC(=O)O)c4ccc(C)cc34)cc2)c1C` [Compound 24], the IC50 was 37000 nM.

As to `CCCC(=O)c1cnn(-c2ccc(NC(=O)c3cn(CC(=O)N4CCOCC4)c4ccc(Cl)cc34)nn2)c1C` [Compound 35], the IC50 was found to be 190 nM.

Take `CCCC(=O)c1cnn(-c2ccc(NC(=O)c3cn(CC(=O)N4CCN(C(C)=O)CC4)c4ccc(Cl)cc34)nn2)c1C` [Compound 42]: the IC50 was 150 nM.

`CCCC(=O)c1cnn(-c2ccc(NC(=O)c3cn(CC(=O)N4CCN(CC(=O)OCC)CC4)c4ccc(Cl)cc34)nn2)c1C` [Compound 34]: the IC50 turned out to be 90 nM.

For the compound `CCCC(=O)c1cnn(-c2ccc(NC(=O)c3cn(CC(=O)N4CCS(=O)(=O)CC4)c4ccc(Cl)cc34)nn2)c1C` [Compound 71], the IC50 was 120 nM.

For `CCCC(=O)c1cnn(-c2ccc(NC(=O)c3cn(CC(=O)NC4CCNC4)c4ccc(C)cc34)cc2)c1C` (centres unmarked) [Compound 245], the IC50 stood at 530 nM.

Regarding `CCCC(=O)c1cnn(-c2ccc(NC(=O)c3cn(CC(=O)N4CCC(NC)C4)c4ccc(C)cc34)cc2)c1C` (centres unmarked) [Compound 250], the IC50 was found to be 610 nM.

With `CCCC(=O)c1cnn(-c2ccc(NC(=O)c3cn(CC(=O)N4CCN(CC)CC4)c4ccc(Cl)cc34)nn2)c1C` [Compound 47], the IC50 stood at 60 nM.

With `CCCC(=O)c1cnn(-c2ccc(NC(=O)c3cn(CC(=O)N4CCN(C)C(C)C4)c4ccc(Cl)cc34)nn2)c1C` (centres unmarked) [Compound 77], the IC50 was 90 nM.

Consider `CCCC(=O)c1cnn(-c2ccc(NC(=O)c3cn(CC(=O)N4CC5CNCC5C4)c4ccc(C)cc34)cc2)c1C` (centres unmarked) [Compound 255], for which the IC50 was 180 nM.

Take `CCCC(=O)c1cnn(-c2ccc(NC(=O)c3cn(CC(=O)N4CCNCC4)c4ccc(C)cc34)cc2)c1C` [Compound 243]: the IC50 is 540 nM.

Turning to `CCCC(=O)c1cnn(-c2ccc(NC(=O)c3cn(CC(=O)O)c4cc(C)c(C)cc34)cc2)c1C` [Compound 16], the IC50 stood at 4600 nM.

On to `CCCC(=O)c1cnn(-c2ccc(NC(=O)c3cn(CC(=O)N4CCN(C(C)C)CC4)c4ccc(Cl)cc34)nn2)c1C` [Compound 54], for which the IC50 was determined as 110 nM.

Regarding `CCCC(=O)c1cnn(-c2ccc(NC(=O)c3cn(CC(=O)O)c4cc(C)c(Br)cc34)cc2)c1C` [Compound 20], the IC50 was 3900 nM.

For `CCCC(=O)c1cnn(-c2ccc(NC(=O)c3cn(CC(=O)N4CCNCC4)c4ccc(Cl)cc34)cc2)c1C` [Compound 256], the IC50 was 230 nM.

On to `CCCC(=O)c1cnn(-c2ccc(NC(=O)c3cn(CC(=O)N4CCN5CCCC5C4C)c4ccc(Cl)cc34)nn2)c1C` (centres unmarked) [Compound 84], for which the IC50 worked out at 90 nM.
